According to patent US20240140931A1, “TRICYCLIC COMPOUNDS AND USES THEREOF” (HUTCHMED LIMITED, priority 2021, published 2024):

Assays:
[1] = biological target: Human full-length SHP2 recombinant protein (Homo sapiens (Human), UniProt Q06124); assay: Assay of full-length SHP2 phosphatase activity; format: biochemical; details: DiFMUP substrate, with activating peptide
In short: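 Full-length human SHP2 preincubated 30 min at RT with activating peptide and compound (1% DMSO final). DiFMUP substrate added, reaction 60 min at 25 °C in dark. Fluorescence at ex 355/em 460 nm; IC50 from 4-parameter fit against enzyme-free and vehicle controls.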

[2] = test system: pERK1/2 (Thr202/Tyr204) in Miapaca2 cells; assay: Assay of intracellular pERK1/2 (Thr202/Tyr204) phosphorylation; format: cell-based
In short: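 Miapaca2 cells treated 2 h at 37 °C with compound (3-fold series; final DMSO 0.5%), then lysed 1 h. pERK1/2 (Thr202/Tyr204) detected by HTRF (665/615 nm ratio) after 2 h at 25 °C; normalized to cell-free lysis buffer and DMSO-treated cell controls; IC50 by four-parameter fit.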

[3] = pERK1/2 (Thr202/Tyr204) HTRF, 2 hours
[4] = Homo sapiens, MIA PaCa-2, 2 h, pERK1/2 (Thr202/Tyr204) HTRF

IC50 [1] [nM]	IC50 [2, 3] [nM]	IC50 [2, 4] [nM]	SMILES	IC50 ([2]; Homo sapiens, MIA PaCa-2, pERK1/2 (Thr202/Tyr204) HTRF, 2 hours) [nM]
1	7	–	C#Cc1ccc2c(c1)[C@@H](N)C1(CCN(c3cc(=O)n(-c4ccc(F)c(Cl)c4Cl)c(C)n3)CC1)C2 (atropisomer, axis not shown) [Compound 108]	–
2	–	24	COCC#Cc1ccc2c(c1)[C@@H](N)C1(CCN(c3nc(C)c(Sc4ccnc(N)n4)c4nccn34)CC1)C2 [Compound 117]	–
1	–	6	Cc1nc(N2CCC3(CC2)Cc2ccc(C#CCO)cc2[C@H]3N)cc(=O)n1-c1cccc(Cl)c1Cl [Compound 32]	–
104	944	–	CC#Cc1ccc2c(c1)[C@@H](N)C1(CCN(c3cc(=O)n(-c4ccc(F)c(F)c4Cl)c(C)n3)CC1)C2 (atropisomer, axis not shown) [Compound 218]	–
6	–	33	COCC#Cc1ccc2c(c1)[C@@H](N)C1(CCN(c3nc(C)n(-c4cccc(Cl)c4Cl)c(=O)c3C)CC1)C2 [Compound 36]	–
25	–	489	C#Cc1ccc2c(c1)[C@@H](N)C1(CCN(c3cc(=O)n(-c4ccc(F)c(OC)c4)c(C)n3)CC1)C2 [Compound 29]	–
6	–	117	C#Cc1ccc2c(c1)[C@@H](N)C1(CCN(c3cc(=O)n(-c4cccc(OC)c4)c(C)n3)CC1)C2 [Compound 43]	–
2	–	6	COCC#Cc1ccc2c(c1)[C@@H](N)C1(CCN(c3cnc(Sc4ccnc(N)n4)c(N)n3)CC1)C2 [Compound 112]	–
2	–	4	Nc1nccc(Sc2cnc(N3CCC4(CC3)Cc3ccc(C#CCO)cc3[C@H]4N)n3ccnc23)c1Cl [Compound 76]	–
21	–	115	C#Cc1ccc2c(c1)[C@@H](N)C1(CCN(c3cc(=O)n(-c4ccc(F)cc4F)c(C)n3)CC1)C2 [Compound 41]	–
3	–	2	C#Cc1ccc2c(c1)[C@@H](N)C1(CCN(c3cnc(Sc4ccnc(N)c4Cl)c(N)n3)CC1)C2 [Compound 95]	–
11	–	117	C#Cc1ccc2c(c1)[C@@H](N)C1(CCN(c3nc(C)n(-c4ccc(OCC)cc4Cl)c(=O)c3C)CC1)C2 [Compound 92]	–
18	–	203	C#Cc1ccc2c(c1)[C@@H](N)C1(CCN(c3cc(=O)n(-c4cccc(Cl)c4)c(C)n3)CC1)C2 [Compound 17]	–
60	–	415	C#Cc1ccc2c(c1)[C@@H](N)C1(CCN(c3cc(=O)n(-c4cc(OC)ccc4Cl)c(C)n3)CC1)C2 [Compound 44]	–
317	> 1000	–	CC#Cc1ccc2c(c1)[C@@H](N)C1(CCN(c3cc(=O)n(-c4ccc(F)c(Cl)c4Cl)c(C)n3)CC1)C2 (atropisomer, axis not shown) [Compound 220]	–
3	–	20	COCCSc1ccc2c(c1)[C@@H](N)C1(CCN(c3ncc(Sc4ccnc(N)n4)c4nccn34)CC1)C2 [Compound 98]	–
130	–	510	C#Cc1ccc2c(c1)[C@@H](N)C1(CCN(c3cc(=O)n(-c4c(F)cccc4Cl)c(C)n3)CC1)C2 [Compound 68]	–
0.6	–	4	NC(=O)C#Cc1ccc2c(c1)[C@@H](N)C1(CCN(c3ncc(Sc4ccnc(N)c4Cl)nc3CO)CC1)C2 [Compound 123]	–
13	–	251	C#Cc1ccc2c(c1)[C@@H](N)C1(CCN(c3nc(C)c(Sc4ccnc(N)c4Cl)n4cncc34)CC1)C2 [Compound 180]	–
2	15	–	C#Cc1ccc2c(c1)[C@@H](N)C1(CCN(c3cc(=O)n(-c4cccc(OC)c4Cl)c(C)n3)CC1)C2 (atropisomer, axis not shown) [Compound 111]	–
0.9	–	15	NC(=O)C#Cc1ccc2c(c1)[C@@H](N)C1(CCN(c3ncc(Sc4ccnc(N)c4Cl)c4nccn34)CC1)C2 [Compound 128]	–
3	–	4	CC#Cc1ccc2c(c1)[C@@H](N)C1(CCN(c3cnc(Sc4ccnc(N)c4Cl)c(N)n3)CC1)C2 [Compound 131]	–
158	–	> 3000	C#Cc1ccc2c(c1)CC1(CCN(c3cc(=O)n(-c4cccc(Cl)c4)c(C)n3)CC1)[C@@H]2N [Compound 26]	–

IC50 [1] [nM]	IC50 [2, 3] [nM]	IC50 [2, 4] [nM]	SMILES	IC50 ([2]; Homo sapiens, MIA PaCa-2, pERK1/2 (Thr202/Tyr204) HTRF, 2 hours) [nM]
24	271	–	C#Cc1ccc2c(c1)[C@@H](N)C1(CCN(c3cc(=O)n(-c4cccc(Cl)c4F)c(C)n3)CC1)C2 (atropisomer, axis not shown) [Compound 66]	–
96	175	–	COCC#Cc1ccc2c(c1)[C@@H](N)C1(CCN(c3cc(=O)n(-c4ccc(F)c(Cl)c4Cl)c(C)n3)CC1)C2 (atropisomer, axis not shown) [Compound 125]	–
12	–	151	C#Cc1ccc2c(c1)CC1(CCN(c3nc(N)c(-c4cn(C)c5ncccc45)c4nccn34)CC1)[C@@H]2N [Compound 25]	–
3	–	78	C#Cc1ccc2c(c1)[C@@H](N)C1(CCN(c3cc(=O)n(-c4cccc(F)c4Cl)c(C)n3)CC1)C2 [Compound 61]	–
133	–	688	CNC(=O)C#Cc1ccc2c(c1)[C@@H](N)C1(CCN(c3ncc(Sc4cccnc4C(F)(F)F)nn3)CC1)C2 [Compound 246]	–
10	–	28	C#Cc1ccc2c(c1)CC1(CCN(c3ncc(Sc4ccnc(NCCO)c4Cl)c4nccn34)CC1)[C@@H]2N [Compound 7]	–
249	959	–	C#Cc1ccc2c(c1)[C@@H](N)C1(CCN(c3cc(=O)n(-c4cccc(OC)c4Cl)c(C)n3)CC1)C2 (atropisomer, axis not shown) [Compound 110]	–
14	–	> 1000	C#Cc1ccc2c(c1)[C@@H](N)C1(CCN(c3cc(=O)n(-c4ccc(C#N)c(O)c4F)c(C)n3)CC1)C2 [Compound 185]	–
34	155	–	C#Cc1ccc2c(c1)[C@@H](N)C1(CCN(c3cc(=O)n(-c4ccc(F)c(OC)c4Cl)c(C)n3)CC1)C2 (atropisomer, axis not shown) [Compound 162]	–
42	–	> 1000	COCC#Cc1ccc2c(c1)[C@@H](N)C1(CCN(c3cc(=O)n(-c4ccc(C#N)c(O)c4F)c(C)n3)CC1)C2 [Compound 186]	–
15	153	–	C#Cc1ccc2c(c1)[C@@H](N)C1(CCN(c3cc(=O)n(-c4ccc(F)c(OC)c4F)c(C)n3)CC1)C2 (atropisomer, axis not shown) [Compound 89]	–
17	–	252	CCNC(=O)C#Cc1ccc2c(c1)[C@@H](N)C1(CCN(c3cnc(Sc4ccnc(N)c4Cl)c(C#N)n3)CC1)C2 [Compound 272]	–
4	100	–	CC#Cc1ccc2c(c1)[C@@H](N)C1(CCN(c3cc(=O)n(-c4ccc(F)c(F)c4Cl)c(C)n3)CC1)C2 [Compound 214]	–
17	80	–	C#Cc1ccc2c(c1)[C@@H](N)C1(CCN(c3nc(C)n(-c4ccc(F)cc4Cl)c(=O)c3C)CC1)C2 (atropisomer, axis not shown) [Compound 103]	–
85	–	962	C#Cc1ccc2c(c1)[C@@H](N)C1(CCN(c3ncc(-c4cn(C)c5ncccc45)c(=O)n3C)CC1)C2 [Compound 285]	–
4	–	223	Cc1nc(N2CCC3(CC2)Cc2ccc(C#CCN(C)C)cc2[C@H]3N)cc(=O)n1-c1cccc(F)c1Cl [Compound 74]	–
46	–	343	Cc1nc(N2CCC3(CC2)Cc2ccc(C#C[C@H](C)O)cc2[C@H]3N)cc(=O)n1-c1cccc(Cl)c1Cl [Compound 38]	–
9	–	204	CNC(=O)C#Cc1ccc2c(c1)[C@@H](N)C1(CCN(c3ncc(N4CCCc5ncccc54)nc3C)CC1)C2 [Compound 263]	–
5	–	23	C#Cc1ccc2c(c1)CC1(CCN(c3cnc(Sc4ccnc(N)c4Cl)c(N)n3)CC1)[C@@H]2N [Compound 2]	–
0.6	–	7	NC(=O)C#Cc1ccc2c(c1)[C@@H](N)C1(CCN(c3ncc(Sc4ccnc(N)n4)nc3CO)CC1)C2 [Compound 122]	–
11	–	115	C#Cc1ccc2c(c1)[C@@H](N)C1(CCN(c3cc(=O)n(-c4cccc(Cl)c4Cl)c(C)n3)CC1)O2 [Compound 47]	–
3	–	8	C#Cc1ccc2c(c1)[C@@H](N)C1(CCN(c3ncc(Sc4ccnc(N)c4Cl)c4nccn34)CC1)C2 [Compound 8]	–
4	–	160	C#Cc1ccc2c(c1)CC1(CCN(c3nc(N)c(-c4cn(C)c5ncccc45)c(=O)n3C)CC1)[C@@H]2N [Compound 4, (S)-6-amino-2-(1-amino-5-ethynyl-1,3-dihydrospiro[indene-2,4′-piperidin]-1′-yl)-3-methyl-5-(1-methyl-1H-pyrrolo[2,3-b]pyridin-3-yl)pyrimidin-4(3H)-one]	–

SMILES	IC50 [1] [nM]	IC50 [2, 3] [nM]	IC50 [2, 4] [nM]	IC50 ([2]; Homo sapiens, MIA PaCa-2, pERK1/2 (Thr202/Tyr204) HTRF, 2 hours) [nM]
C#Cc1ccc2c(c1)[C@@H](N)C1(CCN(c3cc(=O)n(-c4cccc(Cl)c4Cl)c(C)n3)CC1)C2 [Compound 64]	184	–	891	–
C#Cc1ccc2c(c1)[C@@H](N)C1(CCN(c3cc(=O)n(-c4cccc(Cl)c4Cl)c(C)n3)CC1)C2 (atropisomer, axis not shown) [Compound 12, (S)-6-(1-amino-6-ethynyl-1,3-dihydrospiro[indene-2,4′-piperidin]-1′-yl)-3-(2,3-dichlorophenyl)-2-methylpyrimidin-4(3H)-one]	1	–	–	7
C#Cc1ccc2c(c1)[C@@H](N)C1(CCN(c3cc(=O)n(-c4ccc(C#N)c(F)c4Cl)c(C)n3)CC1)C2 [Compound 198]	16	–	191	–
